Test results from US9115380B2, “Kits and methods for generating 5′ capped RNA” (priority 2006, dated 2015).
Read-outs that look alike come from different tables or passages of the source.

Key:
vaccinia capping enzyme = vaccinia capping enzyme (Vaccinia virus, UniProt P04298); type: biochemical
[1] = target: vaccinia mRNA (nucleoside-2′-O—) methyltransferase (Vaccinia virus, UniProt P07617); type: biochemical
[2] = tested on: tobacco acid pyrophosphatase (TAP); type: biochemical; details: capped RNA prepared per Method 6
[3] = tested on: rabbit reticulocyte lysate; type: biochemical; details: rabbit reticulocyte lysate
wheat germ lysate = type: biochemical; details: wheat germ lysate, poly(A)-tailed Renilla luciferase RNA
[4] = target: RNA guanyltransferase activity of the vaccinia capping enzyme system (Vaccinia virus, UniProt P04298); details: permeabilized vaccinia virions; cited from earlier work

For `Nc1nc2c(ncn2[C@H]2C[C@H](O)[C@@H](COP(=O)(O)OP(=O)(O)OP(=O)(O)O)O2)c(=O)[nH]1` [2′-dGTP, 2′-deoxyguanosine-5′-triphosphate], the “conversion of 51-base primary RNA transcript to 52-base capped RNA (in words)” value (vaccinia capping enzyme) was “quantitatively converted”, the “methylation of the 2′-hydroxyl of the 5′-penultimate nucleotide by mRNA (nucleoside-2′-O—) methyltransferase” value [1] was 52-base radioactive band was observed and the “removal of the cap nucleotide by tobacco acid pyrophosphatase (51-base band on PAGE)” value [2] was 51-base band was observed. The “average relative translation efficiency” value ([3]; poly(A)-tailed Renilla luciferase RNA, cap 0 structure, GTP-capped cap 0 RNA = 100%) was 118%, the “average relative translation efficiency” value ([3]; poly(A)-tailed Renilla luciferase RNA, cap I structure) was 84% and the “average relative translation efficiency” value ([3]; poly(A)-tailed firefly luciferase RNA, cap I structure) was 128%. The relative translation efficiency (wheat germ lysate; cap 0 structure, GTP-capped cap 0 RNA = 100%) was 54%, the relative translation efficiency (wheat germ lysate; cap I structure) was 54% and the “activity relative to GTP in [^32P]-PPi exchange assay” value [4] was “approximately 6%”.
